Results taken from patent publication US6383762B1, “Methods of obtaining compounds that interact with a human serotonin (5-HT2) receptor” (Synaptic Pharmaceutical Corporation, priority 1989, dated 2002).

Assays:
[1] = molecular target: T1, 5-HT2 receptor in human cortical membranes (Homo sapiens, UniProt P28223); conditions: human cortex; footnote 1 Lyon et al. 1987, footnote 2 Hoyer et al. 1986; cited from earlier work
T1 construct: the 5-HT2 receptor in human cortical membranes; host or cells: human cortical membranes
T1 sequence (P28223 whole entry): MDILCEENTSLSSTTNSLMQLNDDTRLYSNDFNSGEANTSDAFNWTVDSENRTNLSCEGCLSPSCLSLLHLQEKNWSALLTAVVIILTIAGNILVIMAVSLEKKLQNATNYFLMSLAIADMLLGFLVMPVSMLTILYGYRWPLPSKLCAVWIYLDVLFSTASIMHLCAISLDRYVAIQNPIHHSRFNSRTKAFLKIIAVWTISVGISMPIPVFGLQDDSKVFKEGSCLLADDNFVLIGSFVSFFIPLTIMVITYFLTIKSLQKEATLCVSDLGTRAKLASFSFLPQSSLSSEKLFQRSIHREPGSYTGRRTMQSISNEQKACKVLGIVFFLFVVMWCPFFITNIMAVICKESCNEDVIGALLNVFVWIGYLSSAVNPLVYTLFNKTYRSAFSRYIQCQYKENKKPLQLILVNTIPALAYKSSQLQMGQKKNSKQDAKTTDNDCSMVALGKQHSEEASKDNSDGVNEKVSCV

[2] = molecular target: T2, cloned human 5-HT2 receptor (Homo sapiens, UniProt P28223); assay: Competition for 3H-Ketanserin binding, cloned human 5-HT2 receptor in stably transfected Ltk- cell membranes; conditions: cloned human 5-HT2 receptor expressed in Ltk- cells; 3H-Ketanserin radioligand
T2 construct: Clone 6B contained the entire coding region for a 5-HT2 receptor; expressed in transfected cells
T2 sequence (P28223 whole entry): as above
Procedure: (§1) The total reaction volume was 0.25 ml.
(§2) Subsequent to analysis in transiently transfected cells, the 5-HT2 clone was expressed as a stable transfectant in mouse Ltk^− cells. Further characterization was done on these cells as described above.
Data were analyzed by computer-assisted analysis (Accufit Competition; Lundon Software; Chagrin Falls, Ohio).
(§3) Full saturation analysis was performed on stable cell lines expressing the gene. […] The binding constants were evaluated by computer-assisted nonlinear regression using Accufit (Lundon Software, Chagrin Falls, Ohio). […] Further characterization was accomplished by performing competition experiments for a series of drugs. Analysis of the competition data was accomplished using the computer-assisted nonlinear regression program Accucomp.

[3] = molecular target: T3, 5-HT2 receptor in rat cortical membranes (Rattus norvegicus, UniProt P14842); conditions: rat cortex; Hoyer et al. 1986; cited from earlier work
T3 construct: rather than in rat cortical membranes; host or cells: rat cortical membranes
T3 sequence (P14842 whole entry): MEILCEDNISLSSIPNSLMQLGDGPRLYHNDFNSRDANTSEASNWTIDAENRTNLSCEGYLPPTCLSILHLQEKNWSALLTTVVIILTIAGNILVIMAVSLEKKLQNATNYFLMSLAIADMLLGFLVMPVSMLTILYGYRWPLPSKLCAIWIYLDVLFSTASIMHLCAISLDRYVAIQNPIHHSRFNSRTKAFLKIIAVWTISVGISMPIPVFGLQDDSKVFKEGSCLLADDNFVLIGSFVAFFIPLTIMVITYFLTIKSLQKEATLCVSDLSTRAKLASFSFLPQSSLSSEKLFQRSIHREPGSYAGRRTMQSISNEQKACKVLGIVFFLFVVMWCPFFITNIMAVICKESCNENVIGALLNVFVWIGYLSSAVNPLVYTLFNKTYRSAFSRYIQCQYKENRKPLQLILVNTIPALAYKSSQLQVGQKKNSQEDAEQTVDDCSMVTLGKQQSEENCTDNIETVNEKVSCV

human 5-HT2 receptor [4] = molecular target: T4, human 5-HT2 receptor (Homo sapiens, UniProt P28223); assay: Saturation analysis of 3H-Ketanserin binding to stably transfected Ltk- cells; design: Clone 6B contained the entire coding region for a 5-HT2 receptor; expressed in transfected cells
T4 sequence (P28223 whole entry): as the sequence (P28223 whole entry) above
Procedure: as §1, §2, §3

human 5-HT2 receptor [5] = molecular target: T4, human 5-HT2 receptor; assay: Radioligand binding to transiently transfected Cos-7 cell membranes; conditions: transiently transfected Cos-7 cells

Structure (SMILES)	Ki [1] [nM]	Ki [2] [nM]	Ki [3] [nM]	Bmax (human 5-HT2 receptor [4]; FIG. 4 experiment, stably transfected Ltk- cells) [pmole/mg protein]	Bmax (human 5-HT2 receptor [4]; Ltk- cells transfected with pMO5-6B) [pm/mg protein]	binding affinity in words (human 5-HT2 receptor [5])	estimated site density (human 5-HT2 receptor [5])
CN1C[C@@H](NS(=O)(=O)N(C)C)C[C@@H]2c3cccc4c3c(cn4C)C[C@H]21 [MESULERGINE]	158	146 ± 5	–	–	–	–	–
NCCc1c[nH]c2ccc(C(N)=O)cc12 [5-CT]	813	3030	20000	–	–	–	–
[3H]C([3H])(N1CCC(C(=O)c2ccc(F)cc2)CC1)C([3H])([3H])n1c(=O)[nH]c2ccccc2c1=O [^3H-Ketanserin]	–	–	–	0.602	0.602±0.07	high affinity	0.95-1.6 pm/mg protein
